{"source": "patent US10112899B2", "about": "(ViiV HEALTHCARE UK LIMITED, priority 2014, dated 2018)"}
{"test_system": "HIV in the HTLV-1 transformed cell line MT-4", "experiment": "organism not typed", "type": "cell-based", "conditions": "MT4, 96 h, MT-4 cells; luciferase/cell titer glo readout after 96 hours; 10 point dose response", "units": {"IC50": "nM"}}
{"smiles": "Cc1ccc(-c2c(C)c3c(c(C)c2[C@H](OC(C)(C)C)C(=O)O)CN(C(=O)C2CCC(F)(F)C2)C3)cc1", "note": "(stereo partly drawn) [Example 113, (2S)-2-(tert-butoxy)-2-(2-(3,3-difluorocyclopentanecarbonyl)-4,7-dimethyl-6-(p-tolyl)isoindolin-5-yl)acetic acid]", "IC50": 10}
{"smiles": "Cc1ccc(-c2c(C)c3c(c(C)c2[C@H](OC(C)(C)C)C(=O)O)CN(C(=O)c2ccc4c(c2)OCCO4)C3)cc1", "note": "[Example 255, (S)-2-(tert-butoxy)-2-(2-(2,3-dihydrobenzo[b][1,4]dioxine-6-carbonyl)-4,7-dimethyl-6-(p-tolyl)isoindolin-5-yl)acetic acid]", "IC50": 13}
{"smiles": "Cc1c(-c2c(C)c3c(c(C)c2[C@H](OC(C)(C)C)C(=O)O)CN(C(=O)N2CCCCC2)C3)ccc2c1CCCO2", "note": "[Example 321, (2S)-2-(tert-butoxy)-2-(4,7-dimethyl-6-(5-methylchroman-6-yl)-2-(piperidine-1-carbonyl)isoindolin-5-yl)acetic acid]", "IC50": 2}
{"smiles": "Cc1ccc(C(=O)N2Cc3c(C)c(-c4cc(F)c5c(c4C)CCCO5)c([C@H](OC(C)(C)C)C(=O)O)c(C)c3C2)c(C)c1", "note": "(atropisomer, axis not shown; (M)) [Example 189, (S)-2-(tert-butoxy)-2-((M)-2-(2,4-dimethylbenzoyl)-6-(8-fluoro-5-methylchroman-6-yl)-4,7-dimethylisoindolin-5-yl)acetic acid]", "IC50": 4}
{"smiles": "COc1ccc(C)cc1C(=O)N1Cc2c(C)c(-c3ccc(C)cc3)c([C@H](OC(C)(C)C)C(=O)O)c(C)c2C1", "note": "[Example 250, (S)-2-(tert-butoxy)-2-(2-(2-methoxy-5-methylbenzoyl)-4,7-dimethyl-6-(p-tolyl)isoindolin-5-yl)acetic acid]", "IC50": 4}
{"smiles": "Cc1ccc(-c2c(C)c3c(c(C)c2[C@H](OC(C)(C)C)C(=O)O)CN(Cc2cccc(F)c2)C3)cc1", "note": "[Example 22, (S)-2-(tert-butoxy)-2-(2-(3-fluorobenzyl)-4,7-dimethyl-6-(p-tolyl)isoindolin-5-yl)acetic acid]", "IC50": 20}
{"smiles": "Cc1ccc(-c2c(C)c3c(c(C)c2[C@H](OC(C)(C)C)C(=O)O)CN(C(=O)C2CCC2)C3)cc1", "note": "[Example 228, (S)-2-(tert-butoxy)-2-(2-(cyclobutanecarbonyl)-4,7-dimethyl-6-(p-tolyl)isoindolin-5-yl)acetic acid]", "IC50": 13}
{"smiles": "Cc1ccc(-c2c(C)c3c(c(C)c2[C@H](OC(C)(C)C)C(=O)O)CN(C(=O)c2ccccc2C)C3)cc1", "note": "[Example 219, (S)-2-(tert-butoxy)-2-(4,7-dimethyl-2-(2-methylbenzoyl)-6-(p-tolyl)isoindolin-5-yl)acetic acid]", "IC50": 4}
{"smiles": "Cc1c(-c2c(C)c3c(c(C)c2[C@H](OC(C)(C)C)C(=O)O)CN(C(=O)c2cccc4c2OCC4)C3)cc(F)c2c1CCCO2", "note": "(atropisomer, axis not shown; (M)) [Example 152, (S)-2-(tert-butoxy)-2-((M)-2-(2,3-dihydrobenzofuran-7-carbonyl)-6-(8-fluoro-5-methylchroman-6-yl)-4,7-dimethylisoindolin-5-yl)acetic acid]", "IC50": 2}
{"smiles": "Cc1ccc(-c2c(C)c3c(c(C)c2C(OC(C)(C)C)C(=O)O)CN(CC2CCCCC2)C3)cc1", "note": "(centres unmarked) [Example 10, 2-(tert-butoxy)-2-(2-(cyclohexylmethyl)-4,7-dimethyl-6-(p-tolyl)isoindolin-5-yl)acetic acid]", "IC50": 71}
{"smiles": "Cc1ccc(-c2c(C)c3c(c(C)c2[C@H](OC(C)(C)C)C(=O)O)CN(C(=O)c2cccc(F)c2F)C3)cc1", "note": "[Example 120, (S)-2-(tert-butoxy)-2-(2-(2,3-difluorobenzoyl)-4,7-dimethyl-6-(p-tolyl)isoindolin-5-yl)acetic acid]", "IC50": 3}
{"smiles": "Cc1c2c(c(C)c([C@H](OC(C)(C)C)C(=O)O)c1-c1ccc3c(c1)CCCO3)CN(C(=O)N1CCC(F)(F)C1)C2", "note": "[Example 313, (S)-2-(tert-butoxy)-2-(6-(chroman-6-yl)-2-(3,3-difluoropyrrolidine-1-carbonyl)-4,7-dimethylisoindolin-5-yl)acetic acid]", "IC50": 4}
{"smiles": "Cc1c(-c2c(C)c3c(c(C)c2[C@H](OC(C)(C)C)C(=O)O)CN(C(=O)N2CCCC[C@H]2C)C3)cc(F)c2c1CCCO2", "note": "(atropisomer, axis not shown; (M)) [Example 205, (S)-2-(tert-butoxy)-2-((M)-6-(8-fluoro-5-methylchroman-6-yl)-4,7-dimethyl-2-((M)-2-methylpiperidine-1-carbonyl)isoindolin-5-yl)acetic acid]", "IC50": 4}
{"smiles": "Cc1ccc(-c2c(C)c3c(c(C)c2[C@H](OC(C)(C)C)C(=O)O)CN(C(=O)N2CCS(=O)(=O)CC2)C3)cc1", "note": "[Example 64, (2S)-2-(tert-butoxy)-2-[2-(1,1-dioxo-1λ^6,4-thiomorpholine-4-carbonyl)-4,7-dimethyl-6-(4-methylphenyl)-2,3-dihydro-1H-isoindol-5-yl]acetic acid]", "IC50": 106}
{"smiles": "Cc1ccc(-c2c(C)c3c(c(C)c2[C@H](OC(C)(C)C)C(=O)O)CN(CCCc2cccc(F)c2)C3)cc1", "note": "[Example 38, (2S)-2-(tert-butoxy)-2-{2-[3-(3-fluorophenyl)propyl]-4,7-dimethyl-6-(4-methylphenyl)-2,3-dihydro-1H-isoindol-5-yl}acetic acid]", "IC50": 1230}
{"smiles": "Cc1c2c(c(C)c([C@H](OC(C)(C)C)C(=O)O)c1C1=CCC(C)(C)CC1)CN(C(=O)c1cccc(F)c1)C2", "note": "[Example 302, (S)-2-(tert-butoxy)-2-(6-(4,4-dimethylcyclohex-1-en-1-yl)-2-(3-fluorobenzoyl)-4,7-dimethylisoindolin-5-yl)acetic acid]", "IC50": 4}
{"smiles": "CCOCCC(=O)N1Cc2c(C)c(-c3ccc(C)cc3)c([C@H](OC(C)(C)C)C(=O)O)c(C)c2C1", "note": "[Example 232, (S)-2-(tert-butoxy)-2-(2-(3-ethoxypropanoyl)-4,7-dimethyl-6-(p-tolyl)isoindolin-5-yl)acetic acid]", "IC50": 148}
{"smiles": "Cc1c2c(c(C)c([C@H](OC(C)(C)C)C(=O)O)c1-c1ccc(Cl)cc1)CN(C(=O)C1CCCCC1)C2", "note": "[Example 134, (S)-2-(tert-butoxy)-2-(6-(4-chlorophenyl)-2-(cyclohexanecarbonyl)-4,7-dimethylisoindolin-5-yl)acetic acid]", "IC50": 6}
{"smiles": "Cc1ccc(-c2c(C)c3c(c(C)c2[C@H](OC(C)(C)C)C(=O)O)CN(C(=O)c2cccc(Cl)c2)C3)cc1", "note": "[Example 220, (S)-2-(tert-butoxy)-2-(2-(3-chlorobenzoyl)-4,7-dimethyl-6-(p-tolyl)isoindolin-5-yl)acetic acid]", "IC50": 4}
{"smiles": "Cc1ccc(-c2c(C)c3c(c(C)c2[C@H](OC(C)(C)C)C(=O)O)CN(C(=O)N2[C@H]4CC[C@@H]2CC4)C3)cc1", "note": "[Example 83, (S)-2-(2-((1R,4R)-7-azabicyclo[2.2.1]heptane-7-carbonyl)-4,7-dimethyl-6-(p-tolyl)isoindolin-5-yl)-2-(tert-butoxy)acetic acid]", "IC50": 6}
{"smiles": "Cc1ccccc1C(=O)N1Cc2c(C)c(-c3cc(F)c4c(c3C)CCCO4)c([C@H](OC(C)(C)C)C(=O)O)c(C)c2C1", "note": "(atropisomer, axis not shown; (M)) [Example 146, (S)-2-(tert-butoxy)-2-((M)-6-(8-fluoro-5-methylchroman-6-yl)-4,7-dimethyl-2-(2-methylbenzoyl)isoindolin-5-yl)acetic acid]", "IC50": 3}
{"smiles": "Cc1c(-c2c(C)c3c(c(C)c2[C@H](OC(C)(C)C)C(=O)O)CN(C(=O)c2ccccc2C(C)(C)C)C3)cc(F)c2c1CCCO2", "note": "(atropisomer, axis not shown; (M)) [Example 155, (S)-2-(tert-butoxy)-2-(2-(2-(tert-butyl)benzoyl)-6-((M)-8-fluoro-5-methylchroman-6-yl)-4,7-dimethylisoindolin-5-yl)acetic acid]", "IC50": 48}
{"smiles": "Cc1c(-c2c(C)c3c(c(C)c2[C@H](OC(C)(C)C)C(=O)O)CN(C(=O)c2ccc(F)c(F)c2)C3)cc(F)c2c1CCCO2", "note": "(atropisomer, axis not shown; (M)) [Example 186, (S)-2-(tert-butoxy)-2-((M)-2-(3,4-difluorobenzoyl)-6-(8-fluoro-5-methylchroman-6-yl)-4,7-dimethylisoindolin-5-yl)acetic acid]", "IC50": 2}
{"smiles": "Cc1ccc(-c2c(C)c3c(c(C)c2[C@H](OC(C)(C)C)C(=O)O)CN(C(=O)N2CCC(C)CC2)C3)cc1", "note": "[Example 81, (S)-2-(tert-butoxy)-2-(4,7-dimethyl-2-(4-methylpiperidine-1-carbonyl)-6-(p-tolyl)isoindolin-5-yl)acetic acid]", "IC50": 16}
{"smiles": "COc1ccc(C(=O)N2Cc3c(C)c(-c4cc(F)c5c(c4C)CCCO5)c([C@H](OC(C)(C)C)C(=O)O)c(C)c3C2)c(C)c1", "note": "(atropisomer, axis not shown; (M)) [Example 286, (S)-2-(tert-butoxy)-2-((M)-6-(8-fluoro-5-methylchroman-6-yl)-2-(4-methoxy-2-methylbenzoyl)-4,7-dimethylisoindolin-5-yl)acetic acid]", "IC50": 11}
{"smiles": "Cc1c(-c2c(C)c3c(c(C)c2[C@H](OC(C)(C)C)C(=O)O)CN(C(=O)N2CCC(F)(F)C2)C3)ccc2c1CCCO2", "note": "[Example 320, (2S)-2-(tert-butoxy)-2-(2-(3,3-difluoropyrrolidine-1-carbonyl)-4,7-dimethyl-6-(5-methylchroman-6-yl)isoindolin-5-yl)acetic acid]", "IC50": 3}
{"smiles": "Cc1ccc(-c2c(C)c3c(c(C)c2[C@H](OC(C)(C)C)C(=O)O)CN(C(=O)N2CCC(N4CCOCC4)CC2)C3)cc1", "note": "[Example 98, (S)-2-(tert-butoxy)-2-(4,7-dimethyl-2-(4-morpholinopiperidine-1-carbonyl)-6-(p-tolyl)isoindolin-5-yl)acetic acid]", "IC50": 2300}
{"smiles": "Cc1ccc(-c2c(C)c3c(c(C)c2[C@H](OC(C)(C)C)C(=O)O)CN(C(=O)c2cc(F)cc(C(=O)O)c2)C3)cc1", "note": "[Example 267, (S)-3-(5-(tert-butoxy(carboxy)methyl)-4,7-dimethyl-6-(p-tolyl)isoindoline-2-carbonyl)-5-fluorobenzoic acid]", "IC50": 3460}
{"test_system": "HIV in the HTLV-1 transformed cell line MT-4", "experiment": "organism not typed", "type": "cell-based", "conditions": "MT-4 cells; luciferase/cell titer glo readout after 96 hours; 10 point dose response", "units": {"IC50": "nM"}}
{"smiles": "Cc1ccc(-c2c(C)c3c(c(C)c2[C@H](OC(C)(C)C)C(=O)O)CN([C@@H]2CCC[C@@H](C)C2)C3)cc1", "note": "[Example 37, (2S)-2-(tert-butoxy)-2-{4,7-dimethyl-2-[(1R,3R)-3-methylcyclohexyl]-6-(4-methylphenyl)-2,3-dihydro-1H-isoindol-5-yl}acetic acid]", "IC50": 723}
